Results on seven molecules are retold here after patent US20100136603A1, “KIT AND A METHOD FOR EVALUATING TOXICITY USING SPORE RELEASE BY THE GREEN ALGA ULVA” (priority 2008, published 2010).

The subject of this data set is Ulva pertusa Kjellman. Particulars: for order of toxicity of the heavy metal, estimated by EC50: rank order among heavy metals, spore release, 96 hours. Here is the method:
The present inventors collected Ulva pertusa Kjellman from the coast of Ahnin in Korea, and the leaf (thallus) of Ulva pertusa Kjellman was cut to have a coin shape having a diameter of 6 mm, and dispensed in the plastic cell plate containing 10 ml artificial sea water (35%) medium (Coralife, Energy Savers, California. USA) supplemented with 1 mM KNO3 and 0.1 mM K2HPO4.
The toxicity test was then carried out by adding toxic materials (toxicants) into the medium, keeping the other environmental conditions constant. The used toxic materials and the target concentration are described in the following Table 1.
After cultivated for 96 hours, the thallus having the coin shape was collected, and the area with white color was measured by using the microscope (Axioscope) having a magnification of 400× and the image analysis system (MV200, Samsung, Korea).
The mother liquid of TBTO was prepared in acetone that was mixed with the sea water (0.01%); here an acetone control group in the same concentration was also tested. The toxicities of volatile organic compounds (VOC) [acetone, ethanol, formalin and methanol) were tested by adding aqueous volatile organic compounds (VOC) to the medium to achieve the target concentration.

Each structure is given as a SMILES string.

`[Cd]` [Cd, cadmium]: the “order of toxicity of the heavy metal, estimated by EC50” value is “Cu>Cd>Zn>Pb”.

Consider `[Cu]` [Cu, copper], for which the “order of toxicity of the heavy metal, estimated by EC50” value is “Cu>Cd>Zn>Pb”. Same read-out and setting: the entry for `[Zn]` [Zn, zinc] is “Cu>Cd>Zn>Pb”.

On to `CC(C)=O` [acetone], for which the “order of toxicity of the volatile organic compound (VOC)” value (shortened to “order of toxicity … (VOC)”) (in vivo) was “formaline>methanol>ethanol>acetone”. In the case of `CCO` [ethanol], for the setting “in vivo”, the “order of toxicity … (VOC)” value is “formaline>methanol>ethanol>acetone”. `C=O` [formaline]: under “in vivo”, the “half effective concentration (EC50)” value is recorded as 0.788 μl/L and the “order of toxicity … (VOC)” value is given as “formaline>methanol>ethanol>acetone”. Turning to `CO` [methanol], under “in vivo”, the “order of toxicity … (VOC)” value is given as “formaline>methanol>ethanol>acetone”.
